Holding throughout (assay type): cell-based, Maus
Test [1] deals with PDGF-Rezeptor-gerichtete(n) PTPase(n).
Test [2] relates to PDGF-Rezeptor. Description: Time course of PDGF receptor phosphotyrosine content in intact Swiss 3T3 cells, PTK inhibitor added after PDGF stimulation. To be noted: AG 1296 50 µM added after 5 min PDGF stimulation, over incubation time. The source says: (§1) Swiss 3T3 Fibroblasten (Maus) exprimieren PDGFα und PDGFβ-Rezeptoren auf der Zelloberfläche (Hosang et al. (1989)). Die Stimulation der Zellen mit PDGF führt zu einer raschen Autophosphorylierung dieser Rezeptoren an Tyrosinresten. […] Die autophosphorylierten Rezeptoren werden durch PDGF-Rezeptor-gerichtete PTPase(n) rasch dephosphoryliert (Bohmer et al. (1993)). Die Identität der zellulären PTPasen, die diese Reaktion katalysieren, ist nicht bekannt. Ein hochspezifischer Inhibitor für die PDGF-Rezeptor PTK (AG 1296) hemmt deren Aktivität bereits nach sehr kurzer Behandlung der Zellen (2 min) vollständig (Abb. 1). In isolierten Membranen von Swiss 3T3-Zellen beeinflußt der Inhibitor die in den Membranen enthaltenen PTPase(n) für den autophosphorylierten PDGF-Rezeptor in ihrer Aktivität nicht (Abb. 2). Wird der Inhibitor Zellen nach Aktivierung der PDGF-Rezeptor PTK zugesetzt, kann die Dephosphorylierung des PDGF-Rezeptors zeitabhängig verfolgt werden (Abb. 3).
Swiss 3T3-Zellen wurden in serumfreiem Medium mit PDGF (Abb. 3, Bahn 2-6) oder dem entsprechenden Lösungsmittel (Abb. 3, Bahn 1) behandelt. Nach 5-minütiger Stimulation wurde AG 1296 (50 µM, Abb. 3 B) oder entsprechendes Lösungsmittel (DMSO, Abb. 3 A) zugesetzt. […] Diese Abnahme wird durch die Aktivität der PDGF Rezeptor-gerichteten PTPase in den intakten Zellen bewirkt. Eine graphische Auswertung ist in Abb. 4 gezeigt. […]

The subject of test [3] is PDGF-Rezeptor PTK. Put plainly: Inhibition of PDGF-induced receptor autophosphorylation in intact Swiss 3T3 cells (anti-phosphotyrosine immunoblot). Conditions: AG 1296 50 µM, 2 min preincubation, then PDGF-BB 100 ng/ml for 5 min.
Description: as §1

Each structure is given as a SMILES string.

As to `CNc1ccc2oc(C[C@H]3O[C@@]4(CC[C@H]3C)O[C@H]([C@H](C)C(=O)c3ccc[nH]3)[C@H](C)C[C@H]4C)nc2c1C(=O)O` [A 23187, 5-(Methylamino)-2-[[3,9,11-trimethyl-8-[1-methyl-2-oxo-(1H-pyrrol-2-yl)ethyl]-1,7-dioxaspiro[5,5]undec-2-yl]methyl]-4-benoxazolcarbonsäure], the “Relative PDGF Rezeptor-gerichtete PTPase-Aktivität (% der Kontrolle)” value in test [1] amounted to 161 % der Kontrolle.

As for `COc1cc2ncc(-c3ccccc3)nc2cc1OC` [AG 1296], the “Phosphotyrosingehalt der PDGF-Rezeptoren” value in test [2] is “kontinuierlich ab”. In addition, the “PDGF-induzierte Autophosphorylierung des Rezeptors” value in test [3] is “vollständig unterdrückt”.
